Test results: patent EP0986381B1, “USE OF DITERPENES LIKE HYPOESTOXIDES FOR THE MANUFACTURE OF A MEDICAMENT FOR IMMUNOSUPPRESSION, ANTICANCER AND ANTIVIRAL TREATMENT” (Immune Modulation, Inc., priority 1997, dated 1998)

Experiments:
Type in all cases: cell-based
[1] = tested on: normal human peripheral blood mononuclear cells; assay: Colorimetric MTT cytotoxicity assay, normal PBMC; conditions: 72 hours
Procedure: (§1) The following materials and methods were employed in the non-limiting Examples set out below. Tumor cells: Human cervical epitheloid carcinoma (HeLa), human renal clear cell carcinoma (CAKI-1), human malignant melanoma (RPMI-7951) and mouse malignant melanoma (B16-F1) were procured from ATCC (Rockville, MD) and maintained in vitro with MEM medium (Mediatech, Inc., Herndon, VA) supplemented with 10% heat-inactivated fetal bovine serum (American Qualex, San Clemente, CA), 10mM glutamine, 100 U/ml penicillin, and 100 µg/ml streptomycin (Sigma Chemicals, Saint Louis, MO) (complete medium). […] Cell viability was assessed by trypan blue dye exclusion test and the cell number was adjusted to required concentration. Colorimetric MTT assay: Cytotoxic effects of the hypoestoxide compounds of formulas I and II (JO-4A) were determined in vitro by a colorimetric assay (Mosmann, T., J. Immunol. Methods, 65: 55-63, 1983). […] Mixing with a multichannel pipetter dissolved the dark blue crystals and the absorbance was measured at 545-650 nm using an ELISA plate reader. […] The tumors were measured with a microcaliper, and the tumor volume was calculated by the formula: Length x width x height x 0.5236 (Jungwirth, A. et al., Proc. Natl. Acad. Sci. USA, 94:5810-5813, 1997). […]

[2] = tested on: cultured normal human PBMCs; assay: Toxicity on PHA-activated normal human PBMCs, trypan blue dye exclusion; conditions: 0.0001 µM - 0.5 µM, 7 days
Procedure: PBMCs from two individuals were co-cultured in the presence of varying concentrations of JO-4 for 5 days. […] Cytotoxic T lymphocytes (CTLs) were generated from one-way MLR in the absence or presence of JO-4 for 5-7 days. At the end of culture, CTLs were harvested and tested in a four hour ^51Cr-release assay against activated lymphocytes which were used as stimulators in the one-way MLR. […] Human PBMCs were cultured with 5 µg/ml LPS in the absence or presence of 1.0 µg/ml JO-4 in 24-well microtiter plates for 24 hours. At the end of culture, supernatants were harvested and tested by EIA for the presence of IL-1β, TNF-α, and IL-6. […] PBMCs from two individuals were co-cultured in the absence or presence of varying concentrations of JO-4A for 5 days. […] Antiviral effects of JO-4 on HSV-2 were determined as described in Figure 16A. • Figure 17A and 17B show the results of toxicity testing of JO-4 and JO-4A on normal, uninfected African green monkey kidney cells (CV-1), respectively. […] Cytotoxicity was determined by colorimetric (MTT) assay.
Peripheral Blood Mononuclear cells (PBMCs): Heparinized venous blood was obtained from healthy adult volunteers and PBMCs were separated by centrifugation over Ficoll-Hypaque (Pharmacia Biotech, Piscataway, NJ). […] Cell viability was assessed by trypan blue dye exclusion test and the cell number was adjusted to required concentration.

[3] = tested on: human malignant melanoma (RPMI-7951); assay: Colorimetric MTT cytotoxicity assay, RPMI-7951; conditions: RPMI-7951, 72 hours
Procedure: as §1

For `C=C1C(=O)CC2CC3OC3(C)CCC3OC3(C)CC(O)C1C2(C)C` (stereo not drawn) [JO-4A], the cytotoxic effect [1] was “no cytotoxic effect”, the “toxic effect on cultured human PBMC” value [2] was “no toxic effect” and the IC50 [3] was 10 to 12.5 µM.
